Source: patent publication US20250345350A1, “TREATING PAIN ASSOCIATED WITH CENTRAL SENSITIZATION” (Medicon Pharmaceuticals, Inc., priority 2022, published 2025)
Where two headings read alike, the source gives them in different places.

Columns and labels:
[1] = test system: NTG-induced chronic migraine in mice; assay: PWT (von Frey), NTG-induced chronic migraine model, oral (Example 16)
Protocol: In particular, mice receive sublingual NTG 0.4 mg in the form of a finely crushed 0.4 mg NTG tablet (Greenstone Brand) every two days, receiving a total of five doses. For control mice, an NTG placebo (Practi-Nitroglycerin Sublingual 0.4 mg Simulated Medication tablet) was administered in the same way.
Group 1: placebo NTG (i.e, no NTG treatment, n=8) • 2. Group 2: NTG (n=8) • 3. Group 3: NTG+vehicle (n=8) • 4. […] Group 5: NTG+sulindac (n=8)
Mechanical allodynia was determined using von Frey filaments in line with that performed in the earlier Examples. The PWT test was performed prior to NTG (or placebo NTG) administration to determine baseline values, as indicated. […] The mechanical threshold, expressed as g, indicates the force of the von Frey filament to which the animal reacted.

[2] = test system: STZ-induced central sensitization in Sprague-Dawley rats; assay: PWT (von Frey), streptozotocin rat model of central sensitization (Example 4); assay type: in vivo; conditions: 0.7% sulindac hydrogel 3 times a day for 1 week; 5% lidocaine cream once 30 min before; pregabalin 10 mg/kg orally once 1 h before
Protocol: Sprague-Dawley rats were fasted for 4-6 hours before being injected intraperitoneally with 45 mg/kg STZ. This was performed for all experimental groups, except the naive group. In order to prevent hypoglycaemic death, rats received 10% sucrose water as the sole water source for the first 48 hours after injection. In order to ensure only those rats considered diabetic (i.e., having non-fasting plasma glucose levels of >250 mg/dL) were included in the study, blood glucose was measured at 72 hours after the STZ injection.
Four weeks after STZ injection, the rats were randomised into treatment groups. This delay between STZ injection and treatment allows the establishment of chronic pain (allodynia) associated with central sensitization. […] 5% lidocaine cream (positive control) was applied only once to both hind paws of the rats 30 minutes before measurement of PWT.
The rats were split into 8 study groups, with those in the experimental groups (1-4) having an average body weight of about 225 g, and those in the control groups (5-8) having an average body weight of about 335 g, as follows: • 1. Group 1: naive rats (n=5) • 2. Group 2: STZ only (n=6) • 3. Group 3: STZ plus vehicle (n=6) • 4. […] Group 5: STZ plus oral vehicle (n=8) • 6. Group 6: STZ plus 0.7% sulindac hydrogel (n=7) • 7. Group 7: STZ plus 5% lidocaine cream (n=8) • 8.

[3] = Pharmacokinetics and biodistribution after topical PS 8% ointment to hind paws (Example 25); assay type: in vivo, mouse; conditions: all tissues except the sciatic nerve (higher) and DRG (equal)
Protocol: At 0.5, 1, 3, 5, 12, 18, and 24 h, mice (n=4-5 mice/time point) were euthanized with CO2 inhalation. Blood was drawn immediately after death. Tissues, including paw skin, paw muscle, leg muscle, the sciatic nerve and lumbar DRG bilaterally were dissected quickly, immediately frozen in liquid nitrogen and stored at −80° C. until analyzed.

[4] = test system: PHN induced by HSV-1 KOS strain virus in BALB/c mice; assay: PWT (von Frey), HSV-1 mouse model of PHN, topical (Example 20); assay type: in vivo; conditions: Post-inoculation and treatment, sulindac 5% gel on both hind paws three times a day for three days
Protocol: PHN was induced in mice by infecting them with the HSV-1 KOS strain virus and following established protocols (Ou et al, Front Immunol, 14, 1026269, 2023; Takasaki et al, Anesthesiology, 96(5), 1168-74, 2002).
; Reckitt Benckiser). Three days later, HSV-1 (10^6 PFUs in 20 μl PBS) was inoculated on the shin of the right hind paw (5×5 mm) after scarification with sandpaper. The virus was applied directly to the scarified area. The contralateral hind paw was without inoculation. Mock infection was performed using the same virus inactivated by heating at 60° C. for 1 h.
. Group 1: sham inoculated (n=5-7) • 2.
In a second experiment, the effect of the parent compound, sulindac, was tested in the same mouse model. Five days post-inoculation, sulindac (as a 5% gel), or vehicle control were administered topically onto both hind paws of mice three times a day for three days.
. Group 1: vehicle control (n=5-7) • 2. Group 2: sulindac 5% (n=5-7)

[5] = Pharmacokinetics and biodistribution after 3% PS gel on outer surface of eyelid (Example 26); assay type: in vivo, rabbit; conditions: rabbits, 3% PS gel on outer surface of upper eyelids; for AUC(0-t): read-out: AUC0-24 h; for concentration at 0.5 h / concentration at 1 h / concentration at 2 h / concentration at 4 h / concentration at 8 h / concentration at 24 h: topical, read-out: Amount in tissue, Mean ± SEM
Protocol: The pharmacokinetics and biodistribution of 3% PS gel applied to the outer surface of both upper eyelids was studies in male New Zealand White rabbits.
Eyelid and tissues of the globe were dissected and frozen quickly in liquid nitrogen until the levels of PS and its metabolites were determined by HPLC as described Xie et al. (Br J Pharmacol (2012);165:2152-66).

[6] = test system: paclitaxel-induced central sensitization in C57/BL/6J mice; conditions: day 14; PS hydrogel 5% or 0.7% sulindac 3 times a day; 5% lidocaine cream once 30 min before; pregabalin 10 mg/kg orally once 1 h before
[7] = PS and metabolites in proximal and distal half of the sciatic nerve (Example 25); assay type: in vivo, mouse; conditions: sciatic nerve halves, 30 min after last dose
Protocol: In a separate experiment we studied 8 mice with paclitaxel-induced PN treated with PS 8% ointment 3×/d for 2 wks. Mice were euthanized as above 30 minutes after the last dose of PS. From these mice we harvested both sciatic nerves dividing each into proximal and distal halves, and combined the corresponding halves of every two animals for assay of drug levels.

[8] = test system: NTG-induced migraine in C57BL/6J mice; assay: PWT (von Frey), NTG-induced migraine mouse model, topical (Example 13)
Protocol: Specifically, instead of the intraperitoneal injection of NTG, a finely crushed 0.4 mg NTG tablet (Greenstone Brand) was administered sublingually. As a control, a Practi-Nitroglycerin Sublingual 0.4 mg Simulated Medication tablet was used.
For determining mechanical allodynia, pain threshold responses were measured using the well-established method of von Frey filaments in line with that performed in the earlier Examples.
The PWT test, assessing mechanical allodynia, was performed 30 minutes after treatment. The mechanical threshold, expressed as g, indicates the force of the von Frey filament to which the animal reacted.

[9] = male, New Zealand White, rabbit, topical or ocular, conjunctiva
[10] = male, New Zealand White, rabbit, topical or ocular, cornea
[11] = male, New Zealand White, rabbit, topical or ocular, eyelid
[12] = male, New Zealand White, rabbit, AH (aqueous humor)
[13] = male, New Zealand White, rabbit, conjunctiva
[14] = male, New Zealand White, rabbit, cornea
[15] = male, New Zealand White, rabbit, eyelid
[16] = male, New Zealand White, rabbit, vitreous

In the case of `CC1=C(CC(=O)O)c2cc(F)ccc2/C1=C\c1ccc([S+](C)[O-])cc1` (centres unmarked) [sulindac], the “PWT, g Mean ± SEM” value ([1]; Baseline, prior to NTG administration) is reported as 1.80 ± 0.12 g, the “PWT, g Mean ± SEM” value ([1]; Day 11, orally once a day for 11 days concurrent with NTG, PS 50 mg/kg, sulindac 33 mg/kg) is reported as 0.43 ± 0.03 g and the “PWT, gm Mean ± SEM” value [2] is reported as 23.2 ± 2.6 gm. For the same compound, the “sulindac levels relative to those of PS” value [3] was “around 25%”, the “PWT, g Mean ± SEM” value [4] was 0.56 ± 0.06 g and the “PWT, g Mean ± SEM” value ([4]; listed as Sulindac) was 0.56 ± 0.06 g. For the same compound, the Tmax ([5]; eyelid) was 1 h, the Cmax [5, 9] was 800 nM and the AUC(0-t) [5, 9] was 2.5 ± 0.3 µM·h. The Tmax ([5]; male, New Zealand White, rabbit, topical or ocular, conjunctiva, read-out: TMax) was 8 h, the Cmax [5, 10] was 600 nM and the half-life [5, 10] was 7.4 h. For the same compound, the AUC(0-t) [5, 10] was 2.4 ± 0.5 µM·h, the Cmax [5, 11] was 3600 nM and the half-life [5, 11] was 1.1 h. For the same compound, the AUC(0-t) [5, 11] was 5.5 ± 0.8 µM·h, the concentration at 0.5 h [5, 12] was 0 nM and the concentration at 1 h [5, 12] was 0 nM. For the same compound, the concentration at 2 h [5, 12] was 0 nM, the concentration at 4 h [5, 12] was 0 nM and the concentration at 8 h [5, 12] was 0 nM. It also gave a concentration at 24 h [5, 12] of 0 nM, a concentration at 0.5 h [5, 13] of 100 ± 100 nM and a concentration at 1 h [5, 13] of 200 ± 100 nM. For the same compound, the concentration at 2 h [5, 13] was 0 nM, the concentration at 4 h [5, 13] was 100 ± 100 nM and the concentration at 8 h [5, 13] was 800 ± 500 nM. The concentration at 24 h [5, 13] was 0 nM, the concentration at 0.5 h [5, 14] was 400 ± 200 nM and the concentration at 1 h [5, 14] was 600 ± 100 nM. The concentration at 2 h [5, 14] was 0 nM, the concentration at 4 h [5, 14] was 300 ± 100 nM and the concentration at 8 h [5, 14] was 200 ± 200 nM. For the same compound, the concentration at 24 h [5, 14] was 0 nM, the concentration at 0.5 h [5, 15] was 1000 ± 100 nM and the concentration at 1 h [5, 15] was 3600 ± 1200 nM. For the same compound, the concentration at 2 h [5, 15] was 0 nM, the concentration at 4 h [5, 15] was 500 ± 200 nM and the concentration at 8 h [5, 15] was 0 nM. It also gave a concentration at 24 h [5, 15] of 0 nM, a concentration at 0.5 h [5, 16] of 0 nM and a concentration at 1 h [5, 16] of 0 nM. It also gave a concentration at 2 h [5, 16] of 0 nM, a concentration at 4 h [5, 16] of 0 nM and a concentration at 8 h [5, 16] of 0 nM. The concentration at 24 h [5, 16] was 0 nM, the “PWT, g Mean ± SEM” value [6] was 0.62 ± 0.05 g and the “Fold difference (distal vs proximal)” value [7] was 8.5 fold. For the same compound, the “PWT Post-treatment Mean ± SEM” value ([8]; 30 min after treatment, PS 8% gel or sulindac 5.3% (in DMSO) on both hind paws 30 min after NTG) was 0.55 ± 0.02 g and the “PWT Baseline Mean ± SEM” value ([8]; baseline of the group, before NTG and treatment) was 1.43 ± 0.15 g.
